Calls of active or inactive are those of the source. The rule behind the calls is not given here.
Tests used:
[1] = Cytotoxicity against BRCA2-deficient human Capan1 cells; type: functional, cell-based, CAPAN-1; settings: Homo sapiens, CAPAN-1
MRC5 = assay: Cytotoxicity against human MRC5 cells; type: cell-based; settings: Homo sapiens, MRC5
[2] = (§1) Oral bioavailability in Sprague-Dawley rat at 10 mg/kg by LC-MS/MS analysis; type: ADME, organism-based; settings: Sprague-Dawley, in vivo
[3] = (§2) AUC in Sprague-Dawley rat at 10 mg/kg, po by LC-MS/MS analysis; type: ADME, organism-based; settings: Sprague-Dawley, in vivo
[4] = Cmax in Sprague-Dawley rat at 10 mg/kg, po by LC-MS/MS analysis; type: ADME, organism-based; design: dose 10 mg/kg, route oral; settings: in vivo
LoVo [5] = tested on: LoVo
[6] = Clearance in Sprague-Dawley rat at 5 mg/kg, iv by LC-MS/MS analysis; type: ADME, organism-based; settings: in vivo
[7] = (§3) Terminal eliminational half life in Sprague-Dawley rat at 5 mg/kg, iv by LC-MS/MS analysis; type: ADME, organism-based; settings: Sprague-Dawley, in vivo, read-out: beta t1/2 (converted)
[8] = Volume of distribution at steady state in Sprague-Dawley rat at 5 mg/kg, iv by LC-MS/MS analysis; type: ADME, organism-based; settings: in vivo, read-out: Vdss
MX1 [9] = assay: Antitumor activity against BRCA1 deficient human MX1 cells xenografted in athymic nu/nu mouse at 100 mg/kg, po qd; type: functional, organism-based
Mus musculus [10] = assay: Decrease in PAR level in athymic nu/nu mouse xenografted with human MX1 cells at 100 mg/kg, po measured after 2 and 8 hrs by ELISA; type: functional, organism-based
Salmonella typhimurium = assay: Mutagenicity in Salmonella typhimurium at 5 mg by Ames test; type: toxicity, organism-based, Salmonella enterica subsp. enterica serovar Typhimurium; settings: in vivo
[11] = Cmax in beagle dog at 0.1 mg/kg, po; type: ADME, organism-based, Canis lupus familiaris; design: dose 0.1 mg/kg, route oral; settings: in vivo
[12] = AUC (0 to infinity) in beagle dog at 0.1 mg/kg, po; type: ADME, organism-based, Canis lupus familiaris; design: dose 0.1 mg/kg, route oral, time infinity; settings: in vivo
[13] = Apparent oral clearance in beagle dog at 0.1 mg/kg, po; type: ADME, organism-based, Canis lupus familiaris; settings: in vivo
[14] = Absolute oral bioavailability in beagle dog at 0.1 mg/kg; type: ADME, organism-based, Canis lupus familiaris; settings: in vivo
CYP2D6 = CYP2D6 (Homo sapiens, UniProt P10635); assay: Inhibition of CYP2D6 (unknown origin) at 10 uM; type: ADME
Sequence of CYP2D6 (P10635 whole entry): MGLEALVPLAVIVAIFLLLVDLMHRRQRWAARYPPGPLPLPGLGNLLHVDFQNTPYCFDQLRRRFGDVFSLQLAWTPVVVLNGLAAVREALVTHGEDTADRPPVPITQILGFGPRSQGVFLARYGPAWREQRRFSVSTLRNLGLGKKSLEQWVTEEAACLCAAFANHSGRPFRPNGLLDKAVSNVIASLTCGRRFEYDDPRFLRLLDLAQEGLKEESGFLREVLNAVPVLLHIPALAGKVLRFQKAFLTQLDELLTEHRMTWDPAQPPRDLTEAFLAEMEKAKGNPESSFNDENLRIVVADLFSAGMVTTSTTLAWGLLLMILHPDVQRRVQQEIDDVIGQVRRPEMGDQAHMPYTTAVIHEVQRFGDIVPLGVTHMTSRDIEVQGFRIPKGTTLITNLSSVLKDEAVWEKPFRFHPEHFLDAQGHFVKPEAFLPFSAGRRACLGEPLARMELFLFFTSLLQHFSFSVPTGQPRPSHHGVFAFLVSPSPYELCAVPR

CYP2C19 = CYP2C19 (Homo sapiens, UniProt P33261); assay: Inhibition of CYP2C19 (unknown origin) at 10 uM; type: ADME
Sequence of CYP2C19 (P33261 whole entry): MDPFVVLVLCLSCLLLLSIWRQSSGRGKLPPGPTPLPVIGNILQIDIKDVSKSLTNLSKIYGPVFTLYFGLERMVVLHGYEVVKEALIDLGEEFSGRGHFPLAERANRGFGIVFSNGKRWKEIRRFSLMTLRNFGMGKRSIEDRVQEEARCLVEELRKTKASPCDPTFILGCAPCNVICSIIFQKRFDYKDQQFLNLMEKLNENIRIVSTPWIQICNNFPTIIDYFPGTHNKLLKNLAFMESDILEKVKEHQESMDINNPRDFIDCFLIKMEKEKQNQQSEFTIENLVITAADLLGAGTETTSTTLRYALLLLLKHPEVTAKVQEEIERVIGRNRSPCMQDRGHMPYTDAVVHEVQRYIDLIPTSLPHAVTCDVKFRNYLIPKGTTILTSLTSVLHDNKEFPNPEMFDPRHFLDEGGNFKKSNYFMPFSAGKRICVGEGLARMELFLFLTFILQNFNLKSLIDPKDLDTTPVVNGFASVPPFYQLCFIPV

[15] = Half life in human; type: ADME, organism-based; settings: in vivo
Canis familiaris [16] = assay: Clast in beagle dog at 0.1 mg/kg, po; type: ADME, organism-based, Canis lupus familiaris; settings: in vivo
CYP3A4 = CYP3A4 (Homo sapiens, UniProt P08684); assay: Inhibition of CYP3A4 (unknown origin) at 10 uM; type: ADME
Sequence of CYP3A4 (P08684 whole entry): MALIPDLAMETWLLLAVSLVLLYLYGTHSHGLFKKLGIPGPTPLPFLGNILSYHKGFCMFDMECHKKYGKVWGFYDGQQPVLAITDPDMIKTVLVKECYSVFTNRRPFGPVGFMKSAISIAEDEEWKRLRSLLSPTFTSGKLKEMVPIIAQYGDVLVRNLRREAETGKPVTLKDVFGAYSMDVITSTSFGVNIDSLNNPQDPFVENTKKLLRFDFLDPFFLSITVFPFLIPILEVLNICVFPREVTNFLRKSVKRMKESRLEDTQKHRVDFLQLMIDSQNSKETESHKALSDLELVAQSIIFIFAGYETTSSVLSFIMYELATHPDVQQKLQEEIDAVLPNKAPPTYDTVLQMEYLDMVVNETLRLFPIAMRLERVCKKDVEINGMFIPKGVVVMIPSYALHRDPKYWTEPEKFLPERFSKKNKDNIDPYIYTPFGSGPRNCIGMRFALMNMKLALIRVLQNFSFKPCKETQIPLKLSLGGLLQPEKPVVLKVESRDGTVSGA

Rattus norvegicus [17] = assay: as §3; type: ADME, organism-based; settings: in vivo
Mus musculus [18] = assay: Toxicity in athymic nu/nu mouse assessed as mortality at 0.1 to 0.33 mg/kg, po qd for 28 days; type: organism-based; settings: in vivo, 672 h
CYP1A2 = biological target: T1, CYP1A2 (Homo sapiens, UniProt P05177); assay: Inhibition of CYP1A2 (unknown origin) at 10 uM; type: ADME
T1 sequence (P05177 whole entry): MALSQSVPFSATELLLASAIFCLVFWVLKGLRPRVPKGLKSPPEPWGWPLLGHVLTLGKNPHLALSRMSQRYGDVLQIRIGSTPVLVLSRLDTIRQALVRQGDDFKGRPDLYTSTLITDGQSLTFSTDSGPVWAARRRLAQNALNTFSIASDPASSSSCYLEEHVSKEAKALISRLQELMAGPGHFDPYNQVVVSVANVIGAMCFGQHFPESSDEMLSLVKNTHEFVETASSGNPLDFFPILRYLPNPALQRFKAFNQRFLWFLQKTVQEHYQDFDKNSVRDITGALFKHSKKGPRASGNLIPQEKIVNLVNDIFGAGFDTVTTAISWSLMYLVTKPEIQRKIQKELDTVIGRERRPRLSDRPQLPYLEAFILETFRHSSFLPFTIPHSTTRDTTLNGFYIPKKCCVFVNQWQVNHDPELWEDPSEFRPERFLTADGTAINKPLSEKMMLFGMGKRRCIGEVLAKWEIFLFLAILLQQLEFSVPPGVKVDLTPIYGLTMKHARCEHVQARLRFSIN

[19] = Half life in beagle dog at 0.1 mg/kg, po; type: ADME, organism-based, Canis lupus familiaris; settings: in vivo
[20] = Tmax in beagle dog at 0.1 mg/kg, po; type: ADME, organism-based, Canis lupus familiaris; settings: in vivo
[21] = Plasma protein binding in human; type: ADME, cell-free; settings: read-out: PPB (converted)
CYP2C9 = CYP2C9 (Homo sapiens, UniProt P11712); assay: Inhibition of CYP2C9 (unknown origin) at 10 uM; type: ADME
Sequence of CYP2C9 (P11712 whole entry): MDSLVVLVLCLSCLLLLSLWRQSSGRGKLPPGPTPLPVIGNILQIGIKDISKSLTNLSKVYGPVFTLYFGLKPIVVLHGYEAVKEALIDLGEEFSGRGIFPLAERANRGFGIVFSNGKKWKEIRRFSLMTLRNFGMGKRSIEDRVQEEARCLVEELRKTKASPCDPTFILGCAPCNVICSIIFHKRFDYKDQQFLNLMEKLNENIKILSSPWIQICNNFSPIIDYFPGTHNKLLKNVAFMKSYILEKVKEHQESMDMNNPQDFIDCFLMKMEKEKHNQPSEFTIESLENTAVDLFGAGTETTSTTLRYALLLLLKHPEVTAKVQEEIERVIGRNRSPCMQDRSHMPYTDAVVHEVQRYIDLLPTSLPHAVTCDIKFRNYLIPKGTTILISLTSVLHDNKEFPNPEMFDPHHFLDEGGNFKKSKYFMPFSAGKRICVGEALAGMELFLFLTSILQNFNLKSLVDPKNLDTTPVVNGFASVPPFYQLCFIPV

LoVo [22] = assay: cells; settings: Homo sapiens, 120 h
[23] = biological target: Voltage-gated inwardly rectifying potassium channel KCNH2 (Homo sapiens, UniProt Q12809); assay: Inhibition of human ERG by cell based assay
Sequence of Voltage-gated inwardly rectifying potassium channel KCNH2 (Q12809 whole entry): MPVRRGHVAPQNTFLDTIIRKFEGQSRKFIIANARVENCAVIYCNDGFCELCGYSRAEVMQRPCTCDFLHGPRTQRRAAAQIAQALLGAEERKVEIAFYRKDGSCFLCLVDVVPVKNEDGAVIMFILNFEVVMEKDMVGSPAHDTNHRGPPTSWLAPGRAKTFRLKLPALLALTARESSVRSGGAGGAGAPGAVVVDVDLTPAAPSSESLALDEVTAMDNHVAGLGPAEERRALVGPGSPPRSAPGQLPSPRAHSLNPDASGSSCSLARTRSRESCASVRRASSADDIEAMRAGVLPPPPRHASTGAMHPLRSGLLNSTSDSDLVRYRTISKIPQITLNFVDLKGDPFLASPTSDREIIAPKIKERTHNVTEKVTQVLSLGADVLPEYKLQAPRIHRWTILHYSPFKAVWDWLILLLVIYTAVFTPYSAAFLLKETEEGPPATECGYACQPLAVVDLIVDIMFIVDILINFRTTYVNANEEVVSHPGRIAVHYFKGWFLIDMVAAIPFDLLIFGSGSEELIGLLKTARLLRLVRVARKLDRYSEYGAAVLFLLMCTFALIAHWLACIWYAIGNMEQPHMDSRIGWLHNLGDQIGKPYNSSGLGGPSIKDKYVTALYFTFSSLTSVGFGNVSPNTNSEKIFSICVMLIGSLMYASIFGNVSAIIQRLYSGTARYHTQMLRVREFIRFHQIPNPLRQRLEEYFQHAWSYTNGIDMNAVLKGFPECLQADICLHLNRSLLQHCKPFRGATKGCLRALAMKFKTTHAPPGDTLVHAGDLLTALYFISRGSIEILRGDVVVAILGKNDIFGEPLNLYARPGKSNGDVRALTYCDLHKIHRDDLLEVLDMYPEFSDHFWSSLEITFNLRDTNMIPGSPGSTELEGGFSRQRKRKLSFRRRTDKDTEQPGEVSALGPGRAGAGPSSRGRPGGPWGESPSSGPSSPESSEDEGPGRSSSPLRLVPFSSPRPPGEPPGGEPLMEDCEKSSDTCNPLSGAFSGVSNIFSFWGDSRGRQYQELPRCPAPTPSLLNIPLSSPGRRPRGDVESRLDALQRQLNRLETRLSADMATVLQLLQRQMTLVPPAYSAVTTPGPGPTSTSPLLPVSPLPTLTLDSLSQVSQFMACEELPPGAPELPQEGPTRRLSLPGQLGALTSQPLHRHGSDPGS

Mus musculus [24] = assay: Toxicity in athymic nu/nu mouse assessed as change in body weight at 0.1 to 0.33 mg/kg, po qd for 28 days; type: organism-based; settings: in vivo, 672 h
[25] = AUC (0 to t) in beagle dog at 0.1 mg/kg, po; type: ADME, organism-based, Canis lupus familiaris; settings: in vivo
[26] = Half life in beagle dog at 0.025 mg/kg, iv; type: ADME, organism-based, Canis lupus familiaris; settings: in vivo
Canis familiaris [27] = assay: AUC(0 to infinity) in beagle dog at 0.025 mg/kg, iv; type: ADME, organism-based, Canis lupus familiaris; design: dose 0.025 mg/kg, time infinity, route intravenous; settings: in vivo
[28] = Cmax in beagle dog at 0.01 mg/kg, po; type: ADME, organism-based, Canis lupus familiaris; design: dose 0.01 mg/kg, route oral; settings: in vivo
[29] = AUC(0 to time) in beagle dog at 0.01 mg/kg, po; type: ADME, organism-based, Canis lupus familiaris; settings: in vivo
[30] = Cmax in beagle dog at 0.025 mg/kg, iv; type: ADME, organism-based, Canis lupus familiaris; design: dose 0.025 mg/kg, route intravenous; settings: in vivo
[31] = AUC(0 to t) in beagle dog at 0.025 mg/kg, iv; type: ADME, organism-based, Canis lupus familiaris; settings: in vivo
[32] = Volume of distribution at steady state in beagle dog at 0.025 mg/kg, iv; type: ADME, organism-based, Canis lupus familiaris; settings: in vivo, read-out: Vdss
[33] = Half life in beagle dog at 0.01 mg/kg, po; type: ADME, organism-based, Canis lupus familiaris; settings: in vivo
[34] = Clearance in beagle dog at 0.025 mg/kg, iv; type: ADME, organism-based, Canis lupus familiaris; settings: in vivo
[35] = Tmax in beagle dog at 0.01 mg/kg, po; type: ADME, organism-based, Canis lupus familiaris; settings: in vivo
[36] = Apparent oral volume of distribution in beagle dog at 0.01 mg/kg, po; type: ADME, organism-based, Canis lupus familiaris; settings: in vivo
Canis familiaris [37] = assay: AUC(0 to infinity) in beagle dog at 0.01 mg/kg, po; type: ADME, organism-based, Canis lupus familiaris; design: dose 0.01 mg/kg, time infinity, route oral; settings: in vivo
Canis familiaris [38] = assay: Clast in beagle dog at 0.01 mg/kg, po; type: ADME, organism-based, Canis lupus familiaris; settings: in vivo
Canis familiaris [39] = assay: Absolute oral bioavailability in beagle dog at 0.01 mg/kg; type: ADME, organism-based, Canis lupus familiaris; settings: in vivo
Canis familiaris [40] = assay: Clast in beagle dog at 0.025 mg/kg, iv; type: ADME, organism-based, Canis lupus familiaris; settings: in vivo
MX1 [41] = assay: Potentiation of cisplatin-induced tumor growth inhibition of BRCA1 deficient human MX1 cells xenografted in po dosed athymic nu/nu mouse drug administered for 8 days and animals were treated with cisplatin at 6 mg/kg, ip on day 3; type: functional, organism-based
MX1 [42] = assay: Antitumor activity against BRCA1 deficient human MX1 cells xenografted in athymic nu/nu mouse assessed as tumor growth inhibition at 0.165 mg/kg, po administered twice a day for 28 days; type: functional, organism-based
Mus musculus [43] = assay: Decrease in PAR level in athymic nu/nu mouse xenografted with human MX1 cells at 1 mg/kg, po administered as single dose measured after 2 ,8 and 24 hrs by ELISA; type: functional, organism-based
MX1 [44] = assay: Antitumor activity against BRCA1 deficient human MX1 cells xenografted in athymic nu/nu mouse at 0.33 mg/kg, po qd administered for 28 days; type: functional, organism-based
Mus musculus [45] = assay: Decrease in PAR level in athymic nu/nu mouse xenografted with human MX1 cells at 100 mg/kg, po measured after 24 hrs by ELISA; type: functional, organism-based
MX1 [46] = assay: Antitumor activity against BRCA1 deficient human MX1 cells xenografted in athymic nu/nu mouse at 0.1 mg/kg, po qd administered for 21 days; type: functional, organism-based
MX1 [47] = assay: Potentiation of carboplatin-induced tumor growth inhibition of BRCA1 deficient human MX1 cells xenografted in athymic nu/nu mouse at 0.33 mg/kg po and animals were treated with carboplatin at 35 mg/kg, ip on day 1; type: functional, organism-based
Rattus norvegicus [48] = assay: as §1; type: ADME, organism-based; settings: in vivo
Rattus norvegicus [49] = assay: as §2; type: ADME, organism-based; settings: in vivo
[50] = biological target: Poly [ADP-ribose] polymerase 1 (Homo sapiens, UniProt P09874); assay: Inhibition of human PARP1 using [3H]NAD as substrate after 1 min by microplate scintillation counting analysis
Sequence of Poly [ADP-ribose] polymerase 1 (P09874 whole entry): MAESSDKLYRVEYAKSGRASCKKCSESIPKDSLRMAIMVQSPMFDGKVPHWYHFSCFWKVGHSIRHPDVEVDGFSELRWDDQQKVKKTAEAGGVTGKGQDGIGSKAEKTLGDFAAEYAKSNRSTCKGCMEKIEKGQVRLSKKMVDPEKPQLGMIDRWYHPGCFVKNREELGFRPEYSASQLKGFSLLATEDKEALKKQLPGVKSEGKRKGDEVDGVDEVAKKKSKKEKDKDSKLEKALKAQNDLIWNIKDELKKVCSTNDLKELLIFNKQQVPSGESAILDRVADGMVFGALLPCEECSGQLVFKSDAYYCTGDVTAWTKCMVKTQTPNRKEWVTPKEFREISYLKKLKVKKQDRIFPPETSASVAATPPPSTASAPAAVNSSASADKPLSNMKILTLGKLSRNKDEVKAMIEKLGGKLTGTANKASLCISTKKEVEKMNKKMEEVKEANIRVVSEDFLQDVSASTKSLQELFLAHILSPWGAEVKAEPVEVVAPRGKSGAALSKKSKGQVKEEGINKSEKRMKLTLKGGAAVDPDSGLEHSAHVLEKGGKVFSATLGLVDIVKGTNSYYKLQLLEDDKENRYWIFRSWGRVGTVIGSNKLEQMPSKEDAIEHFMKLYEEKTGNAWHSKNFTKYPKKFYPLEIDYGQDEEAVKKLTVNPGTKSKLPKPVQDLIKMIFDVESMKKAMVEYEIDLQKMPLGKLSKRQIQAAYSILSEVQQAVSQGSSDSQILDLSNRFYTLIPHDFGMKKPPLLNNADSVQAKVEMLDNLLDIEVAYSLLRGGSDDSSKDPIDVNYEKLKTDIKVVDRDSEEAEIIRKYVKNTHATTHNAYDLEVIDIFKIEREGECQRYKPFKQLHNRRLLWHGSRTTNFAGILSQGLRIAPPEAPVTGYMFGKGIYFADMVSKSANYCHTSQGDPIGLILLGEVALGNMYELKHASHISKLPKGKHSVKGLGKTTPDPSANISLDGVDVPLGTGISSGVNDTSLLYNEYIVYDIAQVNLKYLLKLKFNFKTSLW

PARP 1, 2 and 3 = PARP 1, 2 and 3 (Homo sapiens, UniProt P09874+Q9Y6F1+Q9UGN5); assay: Inhibition of PARP in human LoVo cells assessed as inhibition of poly(ADP)-ribose polymerization for 30 mins by fluorescence assay; type: cell-based

O=C(c1cc(Cc2n[nH]c(=O)c3ccccc23)ccc1F)N1CCN(C(=O)C2CC2)CC1 [OLAPARIB]
EC50 [1]: 259 nM
EC50 (MRC5): 5830 nM
bioavailability [2]: 11%
AUC [3]: 559 ng·h/mL
Cmax [4]: 437 ng/mL
GI50 (LoVo [5]): 237 nM
clearance [6]: 34.3 mL/min/kg
half-life [7]: 0.53 h
Vd [8]: 0.83 L/kg
Activity (MX1 [9]): inactive
inhibition (Mus musculus [10]): Active

Cn1ncnc1[C@H]1c2n[nH]c(=O)c3cc(F)cc(c23)N[C@@H]1c1ccc(F)cc1 [TALAZOPARIB]
Activity (Salmonella typhimurium): Non-toxic
Cmax [11]: 72.2 ng/mL
AUC(0-inf) [12]: 629 ng·h/mL
EC50 [1]: 5 nM
EC50 (MRC5): 310 nM
CL/F [13]: 2.7 mL/min/kg
bioavailability [2]: 56%
AUC [3]: 56100 ng·h/mL
Cmax [4]: 7950 ng/mL
bioavailability [14]: 121%
inhibition at 10 µM (CYP2D6): < 12%
inhibition at 10 µM (CYP2C19): < 12%
half-life [15]: 40 h
Clast (Canis familiaris [16]): 0.365 ng/mL
inhibition at 10 µM (CYP3A4): < 12%
clearance [6]: 2 mL/min/kg
beta t1/2 (Rattus norvegicus [17]): 2.25 h
Activity (Mus musculus [18]): Non-toxic
inhibition at 10 µM (CYP1A2): < 12%
half-life [19]: 17.9 h
Tmax [20]: 2 h
Vd [8]: 0.3 L/kg
fraction unbound [21]: 0.213
inhibition at 10 µM (CYP2C9): < 12%
GI50 (LoVo [22]): 4 nM
IC50 [23]: > 100000 nM
Activity (Mus musculus [24]): Non-toxic
AUC(0-t) [25]: 619 ng·h/mL

Cc1ccc(S(=O)(=O)O)cc1.Cn1ncnc1[C@H]1c2n[nH]c(=O)c3cc(F)cc(c23)N[C@@H]1c1ccc(F)cc1 [TALAZOPARIB TOSYLATE]
half-life [26]: 26.7 h
AUC (Canis familiaris [27]): 135 ng·h/mL
Cmax [28]: 68 ng/mL
AUC [29]: 600 ng·h/mL
Cmax [30]: 18.9 ng/mL
AUC(0-t) [31]: 129 ng·h/mL
Vd [32]: 4.67 L/kg
half-life [33]: 24.4 h
clearance [34]: 3.3 mL/min/kg
Tmax [35]: 4 h
Vd/F [36]: 5.81 L/kg
AUC (Canis familiaris [37]): 611 ng·h/mL
Clast (Canis familiaris [38]): 0.313 ng/mL
F (Canis familiaris [39]): 118.7%
Clast (Canis familiaris [40]): 0.182 ng/mL

Cn1ncnc1[C@H]1c2n[nH]c(=O)c3cc(F)cc(c23)N[C@@H]1c1ccc(F)cc1
Activity (MX1 [41]): Dose-dependent effect
Activity (MX1 [42]): Active
inhibition (Mus musculus [43]): Active
Activity (MX1 [44]): Active
inhibition (Mus musculus [45]): inactive
Activity (MX1 [46]): inactive
Activity (MX1 [47]): Active

Cn1ccnc1[C@H]1c2n[nH]c(=O)c3cc(F)cc(c23)N[C@@H]1c1ccc(F)cc1
EC50 [1]: 39 nM
F (Rattus norvegicus [48]): 68%
AUC (Rattus norvegicus [49]): 1810 ng·h/mL
Cmax [4]: 3990 ng/mL
IC50 [50]: 1.6 nM
half-life [7]: 2.1 h
Vd [8]: 0.73 L/kg
EC50 (PARP 1, 2 and 3): 17.9 nM
GI50 (LoVo [22]): 25 nM

From ChEMBL document CHEMBL3763037 (J Med Chem, 2016)
